Data from patent publication US20210114973A1, “PHARMACEUTICAL FORMULATIONS” (First Wave Bio, Inc., priority 2019, published 2021).

How the values were obtained:
[1] = cited from earlier work
[2] = Effect of particle size on colonic exposure levels: single rectal dose of niclosamide suspension, blood and rectal mucosa samples; settings: rabbit; for plasma concentration of niclosamide (maximum measured): rectal administration, 1 hour (time point of maximum plasma concentration)
Description: These preparations of niclosamide were formulated into a suspension. Rabbits were treated with a single dose of these niclosamide suspensions at the dose levels specified. Following dosing, blood samples and rectal mucosa samples were obtained at indicated time points.

Compound | solubility in acetone ([1]; acetone) | solubility in ether, ethanol and chloroform ([1]; ether, ethanol and chloroform) | water solubility ([1]; water, 20° C.) [µg/mL] | concentration at 1 hour ([2]; colon tissue, other: rectal, 22.5 mg) [µg/mL] | plasma concentration of niclosamide (maximum measured) ([2]; 7.5 mg single dose) | plasma concentration of niclosamide (maximum measured) ([2]; 22.5 mg single dose)
O=C(Nc1ccc([N+](=O)[O-])cc1Cl)c1cc(Cl)ccc1O [Niclosamide, 5-chloro-N-(2-chloro-4-nitrophenyl)-2-hydroxybenzamide] | soluble | sparingly soluble | 5 to 8 | – | – | –
O=C(Nc1ccc([N+](=O)[O-])cc1Cl)c1cc(Cl)ccc1O [milled niclosamide, 5-chloro-N-(2-chloro-4-nitrophenyl)-2-hydroxybenzamide] | – | – | – | 6.09 | 6.576 | 20.24
